Data from US6762189B1, “5-pyrimidinecarboxamide derivatives and the pharmaceutical compositions containing said derivatives” (Dong Wha Pharm. Ind. Co., Ltd., priority 1999, dated 2004).

Columns and labels:
HBV = test: Inhibition of HBV proliferation in HBV producing cell line HepG 2.2.15 (competitive PCR of culture supernatant); format: cell-based, Hepatitis B virus; details: HepG 2.2.15, one week; for inhibition at 0.01 µg/mL / inhibition at 0.1 µg/mL / inhibition at 1 µg/mL: Hepatitis B virus, HepG2.2.15, 168 h, read-out: Inhibitory effect on the HBV proliferation, Inhibition activity on HBV-RT (%)
Experimental: The following experiment was performed to determine inhibitory effects of compounds of formula on the proliferation of HBV producing cell line.
To test for antiviral effect, replication and proliferation of HBV were measured in HepG 2.2.15, a human liver cancer cell line.
The cell concentration was adjusted to 1×10^5 cells/ml and 1 ml was added to each well of a 24-well cell culture plate, which was then kept in a culture box for 3-4 days at 37° C. under 5% CO2 until cells grew sufficiently, changing culture medium everyday. When the cells matured sufficiently, the test compounds were added to the final concentrations of 0.01, 0.1, and 1 μg/ml. One week after the addition of test compounds, he culture solution was centrifuged at 5,000 rpm for 10 min. 25 μl of supernatant was transferred to a new tube and 5 μl of lysis solution [0.54N NaOH, 0.06% NP40] was added to each tube. After keeping the tube at 37° C. for 1 hr, 30 μl . of neutralizing solution [0.09NHCl, 0.1MTris-HCl, pH7.4] was added as a reaction solution for competitive polymerase chain reaction (PCR).
PCR was performed using genetic sequence of HBV core protein as a matrix. PCR reaction was carried out by adding 1 unit of Taq polymerase enzyme to 25 pmol of each primer, 250 μM dNTP, 5 μl of PCR reaction solution [0.54N NaOH, 0.06% NP40, 0.09N HCl, 0.1M Tris-HCl, pH 7.4].
DNA polymerized by PCR was electrophoresed on Agarose gel and quantitatively analyzed using an image analyzer (Gel Dcc 1000, Bio-Rad) in order to evaluate the effect of compounds of the present invention on the reduction of HBV proliferation.
3TC (lamivudine) was used as a positive control at the same concentrations as those of the test compounds. The percentage of reduction in HBV proliferation was calculated using the group without test compound as a control and the results are represented in Table 4.

HBV polymerase = biological target: T1, HBV polymerase (Hepatitis B virus genotype A2 subtype adw2, UniProt P03159); test: In vitro reverse transcription activity of HBV polymerase (ELISA-type, DIG/biotin nucleotides); format: biochemical; details: for inhibition at 0.01 µg/mL / inhibition at 0.1 µg/mL / inhibition at 1 µg/mL: read-out: Inhibition activity on HBV-RT (%)
T1 construct: made in house; host or cells: E. coli
T1 sequence (P03159 whole entry): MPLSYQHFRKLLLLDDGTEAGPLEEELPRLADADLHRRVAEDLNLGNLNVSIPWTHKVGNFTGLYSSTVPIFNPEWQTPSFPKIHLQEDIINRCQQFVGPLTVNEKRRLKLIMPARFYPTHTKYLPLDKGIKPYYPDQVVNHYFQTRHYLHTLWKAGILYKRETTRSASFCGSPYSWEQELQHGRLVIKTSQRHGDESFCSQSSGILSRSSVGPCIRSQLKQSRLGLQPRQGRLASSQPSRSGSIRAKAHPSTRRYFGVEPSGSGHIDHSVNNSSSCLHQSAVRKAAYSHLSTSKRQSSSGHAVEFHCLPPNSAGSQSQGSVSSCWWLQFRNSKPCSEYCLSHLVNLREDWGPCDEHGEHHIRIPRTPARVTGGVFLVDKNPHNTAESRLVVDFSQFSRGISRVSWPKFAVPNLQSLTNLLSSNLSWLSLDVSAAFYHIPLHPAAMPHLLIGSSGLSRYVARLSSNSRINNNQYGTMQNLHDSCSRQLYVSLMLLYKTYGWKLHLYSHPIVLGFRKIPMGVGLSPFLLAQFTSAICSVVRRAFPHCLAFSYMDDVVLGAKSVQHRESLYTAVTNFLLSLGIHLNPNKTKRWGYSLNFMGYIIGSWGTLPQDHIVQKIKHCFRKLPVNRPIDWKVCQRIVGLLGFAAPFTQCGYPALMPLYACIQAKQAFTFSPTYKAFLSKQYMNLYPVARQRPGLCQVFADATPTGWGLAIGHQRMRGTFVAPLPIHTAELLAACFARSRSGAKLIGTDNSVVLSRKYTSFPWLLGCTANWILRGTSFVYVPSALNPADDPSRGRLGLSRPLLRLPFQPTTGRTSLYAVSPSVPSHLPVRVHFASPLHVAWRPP
Experimental: The following in vitro experiment was performed to determine the effect of the compounds of formula 1 on the activity of HBV polymerase during reverse transcription.
The present inventors submitted application for a patent concerning HBV polymerase genetically expressed in and separated from E. coli, the process of its preparation, and the method to measure the enzyme activities (KR 94-3918, KR 96-33998). In the present experiments HBV polymerase was used which had been expressed in E. coli as stated above.
The method used in the present invention to measure in vitro reverse transcribing activities of HBV polymerase is as follows. Basic principles are the same as for ELISA. Nucleotides with biotin or digoxigenin group attached are included as substrates and anti-DIG antibodies attached to peroxidase enzyme recognize the polymerized substrates.
To the wells coated with streptavidin, 20 μl of HBV polymerase, 20 μl of reaction mixture (10 μM each of DIG-UTP and Biotin-UTP, 46 mM Tris-HCl, 266 mM KCl, 27.5 mM MgCl2, 9.2 mM DTT substrate/primer hybrid), and 20 μl of test compound (added to 1, 0.1, and 0.01 μg/ml) were added and allowed to react a 22° C. for 15 hrs. During this reaction, HBV polymerase catalyzes DNA synthesis and digoxigenin and biotin attached to nucleotides form bonds with streptavidin coated on the bottom of wells. When the reaction was done, each well was washed with 250μl of cleaning buffer (pH 7.0) for 30 seconds, which was repeated five times to remove remaining impurities. 200 μl of anti-DIG-POD antibody was added to each well and allowed to react for 1 hr at 37° C., and the wells were washed with cleaning buffer to remove impurities. 200μl each of ABTS™, a substrate of peroxidase, was then added and allowed to react at room temperature for 30 min. Absorbance was measured at 405 nm using ELISA reader.
The percentage of reduction in HBV polymerase activities for reverse transcription was calculated using the group without test compound as a control and the results are shown in Table 3.

[1] = biological target: T2, HIV reverse transcriptase (Human immunodeficiency virus type 1 group M subtype B, UniProt P04585); test: In vitro HIV reverse transcriptase activity (non-radioactive reverse transcriptase assay kit); format: biochemical
T2 construct: activities of HIV reverse transcriptase; purchased Boehringer Mannheim
Experimental: The following in vitro experiments were done to determine the effect of compounds of formula 1 on the reduction of HIV enzyme activities in reverse transcription.
Non-radioactive reverse transcriptase assay kit (Boehringer Mannheim) was used in the measurement of in vitro transcriptase activities. 20 μl (40 ng) of HIV transcriptase and 20 μl of reaction mixture containing matrix-primer hybrid poly (A) oligo (dT) 15, DIG(digoxigenin)-dUTP, biotin-dUTP, and TTP were added to wells coated with streptavidin. Test compounds were also added at the final concentrations of 0.1 and 1 μg/ml and allowed to react at 37° C. for 1 hr. At this time, DNA is formed from RNA by the action of HIV transcriptase, forming bonds with streptavidin coated on the bottom of wells because of digoxigenin and biotin moieties attached to nucleotides.
When the reaction was completed, each well was washed with 250 μl. of cleaning buffer (pH 7.0) for 30 sec. five times to remove remaining impurities. 200 μl of anti-DIG-POD […] was added to each well, allowed to react at 37° C. for 1 hr and washed as above to remove impurities. 200 μl of ABTS™, a substrate for peroxidase, was added to each well and allowed to react at room temperature for 30min. Absorbance at 405 nm was then read for each solution using ELISA reader and used for quantitative determination of inhibitory effect on the HIV transcriptase activities. The percentage of reduction in the activities of HIV reverse transcriptase was calculated using the group without test compound as control and the results are represented in Table 5.

Row | Structure (SMILES) | Inhibitory effect on the activities of HIV reverse transcriptase, Inhibition activity on HBV-RT (%) ([1]; 0.1 μg/ml test compound) | inhibition at 0.01 µg/mL (HBV; 0.01 μg/ml) | inhibition at 0.1 µg/mL (HBV; 0.1 μg/ml) | inhibition at 1 µg/mL (HBV; 1 μg/ml) | inhibition at 0.01 µg/mL (HBV polymerase; 0.01 μg/ml test compound) | inhibition at 0.1 µg/mL (HBV polymerase; 0.1 μg/ml test compound) | inhibition at 1 µg/mL (HBV polymerase; 1 μg/ml test compound) | further results
1 | CSc1ncc(C(=O)NN2CCOCC2)c(Nc2ccc3[nH]ncc3c2)n1 (hydrate or solvate) [Example 35, 4-(1H-5-indazolylamino)-2-methylthio-N-(4-morpholinyl)-5-pyrimidinecarboxamide] |  |  |  |  |  |  |  | melting point: 239 to 242 °C
2 | CSc1ncc(C(N)=O)c(Nc2ccc3[nH]ncc3c2)n1 [Example 1, 4-(1H-5-Indazolylamino)-2-methyl thio-5-pyrimidinecarboxamide] | 44% |  |  |  |  |  |  | Inhibitory effect on the HBV proliferation, Inhibition activity on HBV-RT (%) (HBV; 0.01 μg/ml): 25%; Inhibitory effect on the HBV proliferation, Inhibition activity on HBV-RT (%) (HBV; 0.1 μg/ml): 53%; Inhibitory effect on the HBV proliferation, Inhibition activity on HBV-RT (%) (HBV; 1 μg/ml): 82%; Inhibition activity on HBV-RT (%) (HBV polymerase; 0.01 μg/ml test compound): 40%; Inhibition activity on HBV-RT (%) (HBV polymerase; 0.1 μg/ml test compound): 63%; Inhibition activity on HBV-RT (%) (HBV polymerase; 1 μg/ml test compound): 90%; Inhibitory effect on the activities of HIV reverse transcriptase, Inhibition activity on HBV-RT (%) ([1]; 1 μg/ml test compound): 65%
3 | CSc1ncc(C(N)=O)c(Nc2ccc3cn[nH]c3c2)n1 [Example 2, 4-(1H-6-Indazolylamino)-2-methylthio-5-pyrimidinecarboxamide] |  | 20% | 40% | 70% | 36% | 55% | 85% | 
4 | Nc1ccn([C@@H]2CS[C@H](CO)O2)c(=O)n1 [Example 3TC, lamivudine, reference compound] |  | 48% | 80% | 99% |  |  |  | 
5 | CCNC(=O)c1cnc(SC)nc1Nc1ccc2[nH]ncc2c1 [Example 5, N-ethyl-4-(1H-5-Indazolylamino)-2-methylthio-5-pyrimidinecarboxamide] | 57% |  |  |  | 20% | 52% | 70% | Inhibition of HIV reverse transcriptase activity ([1]; 1 μg/ml test compound): 80%
6 | CSc1ncc(C(=O)NC2CC2)c(Nc2ccc3cn[nH]c3c2)n1 [Example 6, N-cyclopropyl-4-(1H-6-Indazolylamino)-2-methylthio-5-pyrimidinecarboxamide] | 54% |  |  |  | 24% | 43% | 74% | Inhibition of HIV reverse transcriptase activity ([1]; 1 μg/ml test compound): 78%
7 | CSc1ncc(C(=O)NCCO)c(Nc2ccc3[nH]ncc3c2)n1 [Example 7, N-(2-Hydroxyethyl)-4-(1H-5-indazolylamino)-2-methylthio-5-pyrimidinecarboxamide] |  | 21% | 61% | 92% | 48% | 76% | 93% | 
8 | CSc1ncc(C(=O)N(C)CCO)c(Nc2ccc3[nH]ncc3c2)n1 [Example 9, N-hydroxyethyl-N-methyl-4-(1H-5-indazolylamino)-2-methylthio-5-pyrimidine Carboxamide] | 52% | 20% | 48% | 65% | 30% | 54% | 75% | Inhibition of HIV reverse transcriptase activity ([1]; 1 μg/ml test compound): 84%
9 | CSc1ncc(C(=O)N(C)CCO)c(Nc2ccc3cn[nH]c3c2)n1 [Example 10, N-hydroxyethyl-N-methyl-4-(1H-6-indazolylamino)-2-methylthio-5-pyrimidinecarboxamide] | 47% |  |  |  | 22% | 48% | 70% | Inhibition of HIV reverse transcriptase activity ([1]; 1 μg/ml test compound): 80%
10 | CC[C@H](CO)NC(=O)c1cnc(SC)nc1Nc1ccc2[nH]ncc2c1 [Example 11] |  |  |  |  |  |  |  | Inhibition activity on HBV-RT (%) (HBV polymerase; 0.01 μg/ml test compound): 44%; Inhibition activity on HBV-RT (%) (HBV polymerase; 0.1 μg/ml test compound): 59%; Inhibition activity on HBV-RT (%) (HBV polymerase; 1 μg/ml test compound): 82%
11 | CC[C@H](CO)NC(=O)c1cnc(SC)nc1Nc1ccc2cn[nH]c2c1 [Example 12, N-[(1R)-1-(hydroxymethyl)propyl]-4-(1H-6-indazolylamino)-2-methylthio-5-pyrimidinecarboxamide] |  |  |  |  | 36% | 55% | 85% | 
12 | COCCNC(=O)c1cnc(SC)nc1Nc1ccc2[nH]ncc2c1 [Example 13, 4-(1H-5-indazolylamino)-N-(2-methoxyethyl)-2-methylthio-5-pyrimidinecarboxamide] |  |  |  |  | 13% | 40% | 58% | 
13 | COCCNC(=O)c1cnc(SC)nc1Nc1ccc2cn[nH]c2c1 [Example 14, 4-(1H-6-indazolylamino)-N-(2-methoxyethyl)-2-methylthio-5-pyrimidinecarboxamide] |  |  |  |  | 25% | 42% | 60% | melting point: 225 to 228 °C
14 | CSc1ncc(C(=O)NCCN2CCOCC2)c(Nc2ccc3cn[nH]c3c2)n1 [Example 20] | 50% |  |  |  |  |  |  | Inhibition activity on HBV-RT (%) (HBV polymerase; 0.01 μg/ml test compound): 12%; Inhibition activity on HBV-RT (%) (HBV polymerase; 0.1 μg/ml test compound): 40%; Inhibition activity on HBV-RT (%) (HBV polymerase; 1 μg/ml test compound): 67%; Inhibitory effect on the activities of HIV reverse transcriptase, Inhibition activity on HBV-RT (%) ([1]; 1 μg/ml test compound): 89%
15 | CSc1ncc(C(=O)NN2CCOCC2)c(Nc2ccc3[nH]ncc3c2)n1 [Example 35, 4-(1H-5-indazolylamino)-2-methylthio-N-(4-morpholinyl)-5-pyrimidinecarboxamide] |  | 29% | 50% | 86% | 46% | 61% | 90% | 
